# Laboratory results taken from ChEMBL document CHEMBL1157539, “Thousands of chemical starting points for antimalarial lead identification” (Nature, 2010).
# Test system: Plasmodium falciparum
# Test: GSK_TCMDC: Inhibition of Plasmodium falciparum 3D7 in whole erythrocytes, using parasite LDH activity as an index of growth.
# Format: functional, organism-based
# Conditions: not given
row,SMILES,XC50
1,C/C=C1\CN2CC[C@H]1C[C@H]2[C@H](O)c1ccnc2ccc(OC)cc12,219 nM

# Same assay, conditions: Plasmodium falciparum, 3D7
row,SMILES,XC50
1,CC1=C(C(=O)Nc2cc3cn[nH]c3cc2F)C(c2ccc(Cl)c(NS(C)(=O)=O)c2)CC(=O)N1 (stereo not given),482 nM
2,Cc1cccc2nc(-c3ccc(-c4ccc(CNCc5cnn(-c6ccccc6)n5)cc4)cc3)[nH]c12,428 nM
3,CCSc1ccccc1CON1C(=N)N=C(N)NC1(C)C,3.2 nM
4,Cc1cc(C2CCN(CCCCNC(=O)c3ccc(-c4ccc(C(F)(F)F)cc4)cc3)CC2)c(C)cc1OCC(N)=O,805 nM
5,CCN(CC)CCCC(C)Nc1c2cc(OC)ccc2nc2cc(Cl)c([N+](=O)[O-])cc12 (stereo not given),787 nM
6,Cc1ccc(Cn2c(N3CCC(C(=O)NCc4ccccn4)CC3)nc3ccccc32)cc1,408 nM
7,CC(C)c1ccc(N2CCN(CCCCNC(=O)c3ccc(NC(=O)c4cc(Cl)cc(Cl)c4)cc3)CC2)cc1,156 nM
8,CN(c1ccc(NC(=O)Nc2cc(C(C)(C)C)on2)cc1)c1ccnc(NCCN2CCOCC2)n1,1120 nM
9,Cc1cccc(C(=O)Nc2ccnc(N3CCCN(Cc4cccc(O)c4)CC3)c2)c1,1210 nM
10,C=CCc1cc(Cc2cnc(N)nc2N)cc(CCC)c1O,986 nM
11,Cc1cc(N2CCOCC2)nc(Nc2ccc(NC(=O)Nc3ccc(F)cc3)cc2)n1,495 nM
12,COC(=O)c1cccc(CNCc2cccc(-c3cccc(-c4nc5cccc(C)c5[nH]4)c3)c2)c1,186 nM
13,O=S1(=O)NCc2ccc(Nc3nccc(Nc4ccc5c(cnn5Cc5ccccc5)c4)n3)cc21,750 nM
14,Fc1ccc(-c2cc3ncnc(N4CCN(CCN5CCCC5)CC4)c3s2)cc1,740 nM
15,CC(=O)Nc1ccc(C(=O)N2CCN(c3ccnc4cc(Cl)ccc34)CC2)cc1,909 nM
16,Cn1cnc(CCNC(=O)c2cccc(-c3csc(-c4nc5ccccc5[nH]4)c3)c2)c1,599 nM
17,Cc1[nH]c(C)c(-c2ccc(Oc3ccc(Cl)cc3)cc2)c(=O)c1C,385 nM
18,Cn1cccc1C(=O)C(=O)Nc1ccc(-c2ccc(-c3nc4cc(F)ccc4[nH]3)cc2)cc1,838 nM
19,CNc1ccc(CNCc2cccc(-c3ccc(-c4nc5cccc(C)c5[nH]4)s3)c2)cc1,987 nM
20,CCN(CCCN1CCCCC1)c1cc(C)nc(Nc2ccc(C(F)(F)F)cc2)n1,374 nM
21,COc1cc(NC(=O)c2cccc([N+](=O)[O-])c2)cc(S(=O)(=O)c2ccc(Cl)cc2)c1,1130 nM
22,Cc1cc(I)ccc1Nc1nc2nonc2nc1Nc1ccc(I)cc1C,510 nM
23,CN1CCC[C@H]1COc1ccc(CN2CC[C@H](NC(=O)c3ccc(Cl)c(Cl)c3)C2)c2ccccc12,946 nM

row,SMILES,XC50
1,C=CCNc1cc(-c2ccccn2)nc(-c2ccccn2)n1,472 nM
2,Cc1cccc2nc(-c3cccc(-c4ccc(NC(=O)CS(C)(=O)=O)cc4)c3)[nH]c12,1000 nM
3,O=C(Nc1cc(Cl)ccc1O)c1cnn2c(C(F)(F)F)cc(-c3cccs3)nc12,859 nM
4,Cc1cc(OCC2CCCO2)c2cc(NC(=O)C(=O)Nc3ccc4nc(C)cc(OCC5CCCO5)c4c3)ccc2n1 (stereo not given),804 nM
5,Cc1c(Cn2ncc(N3CC(C)NC(C)C3)c(Cl)c2=O)cccc1NC(=O)Nc1ccc(-c2ccccc2)cc1 (stereo not given),596 nM
6,O=C(NC1CCC(CN2CCC(c3c[nH]c4ccccc34)CC2)CC1)c1ccc(-c2ccccc2[N+](=O)[O-])o1 (stereo not given),772 nM
7,CN(C)CCCSc1ccccc1NC(=O)C=Cc1ccccc1,964 nM
8,CCN(CC)CCCN(C(=O)Nc1c(Cl)cncc1Cl)c1nc(-c2ccc(F)cc2)cs1,241 nM
9,CCn1c(C)c(C)c2cc(C(=O)Nc3ccon3)ccc21,732 nM
10,Cc1ccnc2nc(C(=O)Nc3cc(Cl)ccc3N3CCOCC3)nn12,1240 nM
11,CC(=O)COc1c(C2CCN(CCCCNC(=O)c3ccc(-c4ccc(C(F)(F)F)cc4)cc3)CC2)ccc2c1CCCC2,784 nM
12,COc1ccc(-c2cccc(NC(=O)c3cccc(C#N)c3)c2)cc1CN(C)CCO,823 nM
13,CN1CC[C@@H](Oc2cc(Nc3nc(-c4ccc(C#N)cc4)cs3)ccc2Cl)C1,821 nM
14,Cc1noc(-c2ccc3c(c2)CCN(CCC2CCC(NC(=O)c4cc5ccccc5[nH]4)CC2)CC3)n1 (stereo not given),689 nM
15,CCN(CCCN1CCCCC1)c1cc(C)nc(Nc2ccc(C)c(C)c2)n1,1020 nM
16,CN(C)C=Nc1ccc(OCCCCCCOc2ccc(N=CN(C)C)cc2)cc1,132 nM
17,CCN(CC)CCCn1c(N)c(-c2nc3ccccc3[nH]2)c2nc(C#N)c(C#N)nc21,267 nM
18,O=C(Nc1n[nH]c2nc(-c3ccco3)c(Br)cc12)c1ccc(CN2CCCC2)cc1,791 nM
19,CN1CCN(CCCN(Cc2cccc(-c3cccc(CNCCc4ccccc4)c3)c2)C(=O)Nc2ccccc2)CC1,579 nM
20,COc1ccccc1Nc1nc(C)cc(NCc2ccc(-c3c(C)noc3C)cc2)n1,872 nM
21,COc1ccc(Nc2nccc(N3CCC(NC(=O)c4cc5ccccc5s4)C3)n2)cc1 (stereo not given),759 nM
22,CS(=O)(=O)c1ccc2[nH]c(-c3cc(-c4cccc(F)c4)cnc3N)nc2c1,1090 nM
23,CC(C)c1cccc(C(NC(=O)[C@H]2Cc3ccccc3CN2C(=O)c2cccc(N3CCOCC3)c2)C2CCCC2)c1 (stereo not given in full),723 nM

row,SMILES,XC50
1,COc1ccccc1CC(C)NCC(O)c1cccc(Cl)c1 (stereo not given),811 nM
2,Cc1ccc2[nH]c(C)cc(=NN=Cc3cccc(F)c3)c2c1,631 nM
3,CCCNCc1ccc(-c2ccc(CN(CCOC)C(=O)Cc3cccnc3)cc2)nc1,823 nM
4,NS(=O)(=O)CCc1cccc(Nc2nccc(-c3c(-c4cccc(NC(=O)c5c(F)cccc5F)c4)nn4ccccc34)n2)c1,58.4 nM
5,CCc1nc(N)nc(N)c1-c1ccccc1,1180 nM
6,O=C(Nc1nc2cc(S(=O)(=O)NCCc3ccc(F)cc3)ccc2n1CCCn1ccnc1)c1ccc(Cl)cc1,1110 nM
7,CCC(O)c1ccc(Br)cc1NC(=O)c1cccc(Cl)c1 (stereo not given),1020 nM
8,COc1ccc(OC)c(C(O)C(C)NCc2cc(Cl)ccc2O)c1 (stereo not given),382 nM
9,O=C(NCCOc1ccccc1)[C@H](Cc1ccccc1)Nc1ccnc(NCC2CCCCC2)n1,1200 nM
10,Cc1c(C)n(Cc2ccccc2)c2ncnc(OC3CCN(CC(=O)NCC4CC4)CC3)c12,1120 nM
11,Cc1cccc2nc(-c3cccc(-c4cccc(C(=O)NCCc5cn(C)cn5)c4)c3)[nH]c12,588 nM
12,Cc1cc2nc(-c3ccc(/C=C/C(=O)NCc4ccc(Cl)c(Cl)c4)cc3)[nH]c2cc1C,824 nM
13,Cc1nc(NC(=N)N)nc2ccc(C(C)(C)C)cc12,747 nM
14,CCCCC([C@@H](Cc1ccc2ccccc2c1)C(=O)N[C@H](C(=O)NC)C(C)(C)C)N(O)C=O (stereo not given in full),142 nM
15,O=C(Nc1cccc(N2CCC(NCCCc3ccncc3)CC2)c1)c1cccc(C(F)(F)F)c1,853 nM
16,CC(=O)NCCCCC1NC2(C(=O)N(Cc3ccc(C(C)(C)C)cc3)c3ccccc32)C2C(=O)N(C3CCCCC3)C(=O)C12 (stereo not given),788 nM
17,COc1ccc(NC(=O)NC2CCN(CCCOc3ccnc4cc(Cl)ccc34)C2)cc1OC (stereo not given),792 nM
18,COc1cccc(-c2cnc(N)c(-c3nc4cc(Cl)c(F)cc4[nH]3)c2)c1,536 nM
19,CCNc1cc(C(=O)N[C@@H](Cc2ccccc2)[C@H](O)CN[C@H]2CCc3ccccc32)cc(N2CCCC2=O)c1,295 nM
20,COC(=O)c1ccc(CC(C)NCC(O)c2cccc(Oc3cccc(C(F)(F)F)c3)c2)cc1 (stereo not given),1170 nM
21,CC(C)c1ccc(C=CC(=O)NC2CCC(CN3CCC(c4c[nH]c5ccccc45)CC3)CC2)cc1 (stereo not given),807 nM
22,COc1ccc(NC(=O)/C=C/c2ccccc2Cl)cc1OCCN1CCC(Cc2cc3ccccc3[nH]2)CC1,903 nM
23,CC(CO)(CO)NCc1cc2ccc3ccsc3c2c2ccccc12,229 nM
